Measured values taken from paper PMC7608132 (Acta Pharmacologica Sinica, 2020).
Where two headings read alike, the source gives them in different places.

What was measured:
[1] = rifampin; cited from earlier work
[2] = HLMs, 3 µM alflutinib, selective inhibitor at the concentration of b13

Question: For `Nn1nnc2ccccc21` [ABT, 1-aminobenzotriazole], which “Suppression of the production of AST5902” value (CYP enzymes in HLMs) is on record?
Answer: 98%

Question: With `O=c1cc(-c2ccccc2)oc2c1ccc1ccccc12` [α-Naphthoflavone, α-naphthoflavone] as the molecule, how does the “Effect on the formation of alflutinib metabolites” value (CYP enzymes in HLMs) read?
Answer: no significant effects

Question: For `O=c1c(O)c(-c2ccc(O)c(O)c2)oc2cc(O)cc(O)c12` [Quercetin, quercetin], which “Suppression of the production of AST5902” value (CYP enzymes in HLMs; [2]) is on record?
Answer: 68%

Question: Which In vivo concentrations [1] does the source give for `CO[C@H]1/C=C/O[C@@]2(C)Oc3c(C)c(O)c4c(O)c(c(/C=N/N5CCN(C)CC5)c(O)c4c3C2=O)NC(=O)/C(C)=C\C=C\[C@H](C)[C@H](O)[C@@H](C)[C@@H](O)[C@@H](C)[C@H](OC(C)=O)[C@@H]1C` [Rifampin] here?
Answer: 10 to 18 µM

Question: Which “Suppression of the production of AST5902” value (CYP enzymes in HLMs; [2]) does the source give for `Nc1ccc(S(=O)(=O)Nc2ccnn2-c2ccccc2)cc1` [Sulfaphenazole, sulfaphenazole] here?
Answer: 45%

Question: For `Cc1ncsc1CCCl` [chlormethiazole], which “Effect on the formation of alflutinib metabolites” value (CYP enzymes in HLMs; HLMs, α-naphthoflavone 2 µM, chlormethiazole 24 µM) is on record?
Answer: no significant effects
